This note sets out measurements from article PMC10641818, “Development of First-in-Class Dual Sirt2/HDAC6 Inhibitors as Molecular Tools for Dual Inhibition of Tubulin Deacetylation” (Journal of Medicinal Chemistry, 2023).

Assay [1] deals with T1, Sirt2 (Homo sapiens, UniProt Q8IXJ6).
T1 construct: the respective sirtuin (Sirt1_134–747, Sirt2_56–356, or Sirt3_118–395) was mixed with; made in house; host or cells: Escherichia coli BL21 Star (DE3)
T1 sequence (Q8IXJ6 56-356): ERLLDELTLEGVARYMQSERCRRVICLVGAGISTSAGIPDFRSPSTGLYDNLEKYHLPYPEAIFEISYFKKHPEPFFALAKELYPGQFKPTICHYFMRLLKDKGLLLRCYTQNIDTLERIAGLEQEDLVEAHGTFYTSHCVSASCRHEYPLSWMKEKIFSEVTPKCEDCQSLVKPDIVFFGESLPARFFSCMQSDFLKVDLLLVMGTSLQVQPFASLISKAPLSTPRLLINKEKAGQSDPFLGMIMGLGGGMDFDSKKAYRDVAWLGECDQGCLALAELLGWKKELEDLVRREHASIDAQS
Nature of the assay: Sirt2 in vitro deacetylation assay (ZMAL, trypsin-based fluorescence). Format: biochemical. As to conditions: deacetylation, mean ± SD.

The target in a further assay is T2, Sirt2 (demyristoylation) (Homo sapiens, UniProt Q8IXJ6).
T2 construct: the respective sirtuin (Sirt1_134–747, Sirt2_56–356, or Sirt3_118–395) was mixed with; made in house; host or cells: Escherichia coli BL21 Star (DE3)
T2 sequence (Q8IXJ6 56-356): T1 sequence (Q8IXJ6 56-356)
The assay is described as follows: Discontinuous Sirt2 demyristoylation assay (ZMML substrate). Format: biochemical. As to conditions: mean ± SD.

Assay [2] concerns HGC27 gastric carcinoma cells. Nature of the assay: Cell viability assay (MTS) HGC27. Format: cell-based. As to conditions: Homo sapiens, HGC-27, 72 h. The method in brief:
(§1)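 HGC27 and PC-3M-luc cells (2000/well) were read by MTS after compound in 0.5% DMSO. W1 (10^4/well) and MCF-7 (2 × 10^3/well) were given half-log dilutions for 72 h, then MTT for 1 h, with absorbance at 570 nm minus 690 nm. Viability was fitted to a four-parameter logistic curve.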

Assay [3] deals with PC-3M-luc prostate cancer cells. Nature of the assay: Cell viability assay (MTS) PC-3M-luc. Format: cell-based. The following applies: 72 h. The method in brief:
as §1

A further assay addresses T3, Sirt3 (Homo sapiens, UniProt Q9NTG7).
T3 construct: the respective sirtuin (Sirt1_134–747, Sirt2_56–356, or Sirt3_118–395) was mixed with; made in house; host or cells: Escherichia coli BL21 Star (DE3)
T3 sequence (Q9NTG7 118-395): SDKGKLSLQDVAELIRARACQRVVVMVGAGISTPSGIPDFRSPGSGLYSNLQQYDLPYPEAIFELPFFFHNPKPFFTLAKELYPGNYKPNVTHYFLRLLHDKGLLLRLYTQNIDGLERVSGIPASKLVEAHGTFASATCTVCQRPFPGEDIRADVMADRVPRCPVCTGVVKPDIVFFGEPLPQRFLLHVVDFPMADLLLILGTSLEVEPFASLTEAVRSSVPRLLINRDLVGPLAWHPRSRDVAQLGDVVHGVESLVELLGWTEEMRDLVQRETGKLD
The assay is described as follows: Sirt3 in vitro deacetylation assay (ZMAL). Format: biochemical.

The target of a further assay is T4, HDAC1 (Homo sapiens, UniProt Q13547).
T4 construct: purchased BPS Bioscience 50051
Nature of the assay: HDAC1 in vitro deacetylation assay (ZMAL). Format: biochemical.

In the next assay the test system is W1 ovarian cancer cells. The assay is described as follows: Cell viability assay (MTT) W1. Format: cell-based. As to conditions: 72 h. The method in brief:
as §1

Assay [4] concerns MCF-7 breast cancer cells. Nature of the assay: Cell viability assay (MTT) MCF-7. Format: cell-based. As to conditions: Homo sapiens, MCF7, 72 h. The procedure, abridged: as §1
Assay [5] deals with T5, Sirt2 (Homo sapiens, UniProt Q8IXJ6).
T5 construct: expressed in transfected cells; host or cells: HEK293T
T5 sequence (Q8IXJ6 1-389): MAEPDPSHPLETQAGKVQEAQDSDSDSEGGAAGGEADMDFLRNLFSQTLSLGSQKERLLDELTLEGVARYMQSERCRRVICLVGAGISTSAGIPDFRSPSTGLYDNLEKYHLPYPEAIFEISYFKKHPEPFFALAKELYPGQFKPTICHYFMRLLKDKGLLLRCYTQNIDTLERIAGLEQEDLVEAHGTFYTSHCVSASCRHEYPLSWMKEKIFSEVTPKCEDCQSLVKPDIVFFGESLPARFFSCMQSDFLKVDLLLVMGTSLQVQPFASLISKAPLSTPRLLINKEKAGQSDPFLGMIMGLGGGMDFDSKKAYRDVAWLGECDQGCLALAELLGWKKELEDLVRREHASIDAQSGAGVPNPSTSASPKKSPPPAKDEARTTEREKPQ
Nature of the assay: Cell-based NanoBRET assay for Sirt2 target engagement in HEK293T cells. The following applies: tracer SirReal-TAMRA 2 μM, read-out: Cellular Sirt2 target engagement IC50 (NanoBRET).

T4 sequence (Q13547 whole entry): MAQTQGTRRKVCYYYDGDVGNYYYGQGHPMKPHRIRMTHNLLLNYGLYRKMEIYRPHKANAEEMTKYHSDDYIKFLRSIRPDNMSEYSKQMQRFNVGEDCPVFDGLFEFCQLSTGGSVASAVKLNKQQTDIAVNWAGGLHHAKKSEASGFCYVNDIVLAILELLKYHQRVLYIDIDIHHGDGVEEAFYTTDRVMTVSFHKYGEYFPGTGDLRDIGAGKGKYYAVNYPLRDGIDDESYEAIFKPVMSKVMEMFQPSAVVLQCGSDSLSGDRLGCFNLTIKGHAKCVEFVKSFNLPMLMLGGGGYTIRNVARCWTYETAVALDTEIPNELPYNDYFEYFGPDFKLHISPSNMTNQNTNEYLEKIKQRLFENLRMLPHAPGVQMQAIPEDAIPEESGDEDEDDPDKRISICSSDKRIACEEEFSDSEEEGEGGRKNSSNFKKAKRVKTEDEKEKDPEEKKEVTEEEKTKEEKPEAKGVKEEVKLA

Take `Cc1cc(C)nc(SCC(=O)Nc2ncc(Cc3cccc(OCc4cn(Cc5ccccc5)nn4)c3)s2)n1` [Compound 4, SirReal1.1, reference compound]: the values for the IC50 on Sirt2 [1], on Sirt2 (demyristoylation) and on Sirt2 [5] were 220 ± 10 nM, 1400 ± 300 nM and 200 nM, respectively. In addition, the inhibition (commonly how much of the control response was suppressed) at 50 µM in [2] (@ 50 μM, read-out: HGC27 percentual inhibition) is 39%. Moreover, the PC-3M-luc cellular effect entry in assay [3] (@ 50 μM) is given as “ni ^b (ni = no inhibition (cellular effect <20% @ 50 μM))”. The compound further showed an inhibition at 20 µM at Sirt3 of under 15%. Also, the inhibition at 10 µM on HDAC1 (@ 10 μM, read-out: HDAC1 percentual inhibition) was 10%. Moreover, the inhibition at 100 µM in the assay with W1 ovarian cancer cells (@ 0.1 mM, read-out: W1 percentual inhibition) is 3%; in [4] (@ 0.1 mM, read-out: MCF-7 percentual inhibition), 3%.
With `CCCCN(Cc1ccc(C(=O)NO)cc1)C(=O)CCCCn1cc(COc2cccc(Cc3cnc(NC(=O)CSc4nc(C)cc(C)n4)s3)c2)nn1` [Compound 33, 4-((N-Butyl-5-(4-((3-((2-(2-((4,6-dimethylpyrimidin-2-yl)thio)acetamido)thiazol-5-yl)methyl)phenoxy)methyl)-1H-1,2,3-triazol-1-yl)pentanamido)methyl)-N-hydroxybenzamide], the IC50 (as a rule, the midpoint of a concentration-inhibition curve) came to 320 ± 110 nM against Sirt2 [1]; 9700 ± 1300 nM on Sirt2 (demyristoylation); 2200 ± 200 nM on HDAC1 (deacetylation, mean ± SD); 560 nM at Sirt2 [5]. Further, the EC50 (usually the concentration that produces a half-maximal response) in assay [2] (MTS, mean ± SD) came to 12900 ± 900 nM; in [3] (PC-3M-luc, read-out: PC-3M-luc cell viability EC50, MTS, mean ± SD), 30100 ± 3800 nM; in the assay on W1 ovarian cancer cells (MTT, mean ± SD), 19200 ± 1300 nM; in assay [4] (MTT, mean ± SD) it was 21100 ± 6700 nM. At Sirt3, this compound returned an inhibition at 20 µM of under 15%.
